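Cultured in 96-well plates, cells were exposed to test compound for 48 hours across five concentrations. TGI: concentration producing complete growth inhibition.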
What was measured:
Experiment in all cases: NCI anticancer screen, dose series, 48 h
HCT-116 colon = system: HCT-116 colon
SK-OV-3 ovarian = system: SK-OV-3 ovarian
M14 melanoma = system: M14 melanoma
DU-145 prostate = system: DU-145 prostate
NCI-H23 lung = system: NCI-H23 lung
A549 NSCLC = system: A549 NSCLC
IGROV1 ovarian = system: IGROV1 ovarian
COLO 205 colon = system: COLO 205 colon
SK-MEL-5 melanoma = system: SK-MEL-5 melanoma
786-0 renal = system: 786-0 renal
OVCAR-5 ovarian = system: OVCAR-5 ovarian
HS 578T breast = system: HS 578T breast
OVCAR-3 ovarian = system: OVCAR-3 ovarian
HCT-15 colon = system: HCT-15 colon
OVCAR-8 ovarian = system: OVCAR-8 ovarian
PC-3 prostate = system: PC-3 prostate
HT29 colon = system: HT29 colon
SNB-75 CNS = system: SNB-75 CNS
SF-295 CNS = system: SF-295 CNS
CAKI-1 renal = system: CAKI-1 renal

| Compound | TGI (HCT-116 colon) | TGI (SK-OV-3 ovarian) | TGI (M14 melanoma) | TGI (DU-145 prostate) | TGI (NCI-H23 lung) | TGI (A549 NSCLC) | TGI (IGROV1 ovarian) | TGI (COLO 205 colon) | TGI (SK-MEL-5 melanoma) | TGI (786-0 renal) | TGI (OVCAR-5 ovarian) | TGI (HS 578T breast) | TGI (OVCAR-3 ovarian) | TGI (HCT-15 colon) | TGI (OVCAR-8 ovarian) | TGI (PC-3 prostate) | TGI (HT29 colon) | TGI (SNB-75 CNS) | TGI (SF-295 CNS) | TGI (CAKI-1 renal) |
| --- | --- | --- | --- | --- | --- | --- | --- | --- | --- | --- | --- | --- | --- | --- | --- | --- | --- | --- | --- | --- |
| CCOC(=O)N(C)C(=C(F)F)C(F)(F)F | 55.2 µM | > 100 µM | 46.5 µM | > 100 µM | 69.8 µM | > 100 µM | 62.4 µM | 44 µM | 30 µM | 72 µM | > 100 µM | > 100 µM | > 100 µM | 34.3 µM | 79.4 µM | > 100 µM | 78.2 µM | 93.1 µM | > 100 µM |  |
| CCc1cc2c(c3c1CCCC3)CC1(Cc3ccc(C(=O)OC)cc3C1)C2 (stereo unspecified) | > 100 µM | > 100 µM | > 100 µM | > 100 µM | > 100 µM | > 100 µM | > 100 µM | > 100 µM | > 100 µM | > 100 µM | > 100 µM | > 100 µM | > 100 µM | > 100 µM | > 100 µM | > 100 µM | > 100 µM | > 100 µM | > 100 µM |  |
| COc1cc(C2c3cc4c(cc3OC(NCCc3ccccc3)C2C)OCO4)cc(OC)c1OC (stereo unspecified) | 18.6 µM | > 100 µM | > 47.6 µM | > 100 µM | > 20.9 µM | > 90.4 µM | 27 µM | 0.605 µM | 4.82 µM | 18.1 µM | > 100 µM | 0.425 µM |  | > 40.9 µM | > 100 µM |  | 11.1 µM | 0.488 µM | 1.98 µM | 0.939 µM |
| COC(=O)c1nn2ccc3ccccc3c2c1C(=O)OC | > 100 µM | > 100 µM | > 100 µM | > 100 µM | > 100 µM | > 100 µM | > 100 µM | > 100 µM | > 100 µM | > 100 µM | > 100 µM | > 100 µM |  | > 100 µM | > 100 µM | > 100 µM | > 100 µM | > 100 µM | > 100 µM | > 100 µM |
| COc1cc(/C=N/c2ccccn2)cc(OC)c1OC | > 100 µM | > 100 µM | > 100 µM | > 100 µM | > 100 µM | > 100 µM | > 100 µM | > 100 µM | > 100 µM | > 100 µM | > 100 µM | > 100 µM | > 100 µM | > 100 µM | > 100 µM |  | > 100 µM | > 100 µM | > 100 µM | > 100 µM |
| Cc1cc(S(=O)(=O)NC2=NCCN2Cc2ccccc2)c(S)cc1Cl | > 100 µM | > 100 µM | > 100 µM | > 100 µM | > 100 µM | > 100 µM | > 100 µM | > 100 µM | > 100 µM | > 100 µM | > 100 µM |  | > 100 µM | > 100 µM | > 100 µM | > 100 µM | > 100 µM | > 100 µM | > 100 µM | > 100 µM |
| Nc1ncnc2c1ncn2-c1ccc([N+](=O)[O-])cn1 | > 100 µM | > 100 µM | > 100 µM | > 100 µM | > 100 µM | > 100 µM |  | > 100 µM | > 100 µM | > 100 µM | > 100 µM | > 100 µM | > 100 µM | > 100 µM | > 100 µM |  | > 100 µM | > 100 µM | > 100 µM | > 100 µM |
| CCCCCCSCC/C(C)=N\OC | > 100 µM | > 100 µM | > 100 µM | > 100 µM | > 100 µM | > 100 µM | > 100 µM | > 100 µM | > 100 µM | > 100 µM | > 100 µM |  | > 100 µM | > 100 µM | > 100 µM | > 100 µM | > 100 µM | > 100 µM | > 100 µM | > 100 µM |
| CCOC(=O)c1sc2c(c1O)c(=O)n(-c1ccccc1)c(=S)n2-c1ccccc1 |  |  | > 100 µM | > 100 µM | > 100 µM | > 100 µM | > 100 µM | > 100 µM | > 100 µM | > 100 µM | > 100 µM | > 100 µM | > 100 µM | > 100 µM | > 100 µM |  | > 100 µM | > 100 µM | > 100 µM |  |
| COC(=O)n1c(C)c(C=O)c2ccc(OC)cc21 | > 100 µM | > 100 µM | > 100 µM | > 100 µM | 89.7 µM | > 100 µM | > 100 µM | > 100 µM | 57.5 µM | > 100 µM | > 100 µM |  | > 100 µM | 82.7 µM | > 100 µM | > 100 µM | > 100 µM | > 100 µM | 69.6 µM | 87.9 µM |
| [N-]=[N+]=Nc1ccc2c(c1)Sc1ccccc1N2CCCCN1CCN(Cc2ccc(C(=O)c3ccc(CSCC(N)C(=O)O)cc3)cc2)CC1 (stereo unspecified) | 29.5 µM | > 100 µM |  | 67.7 µM | 74.2 µM |  | 30.9 µM | 40.1 µM | 34.9 µM | 24.4 µM | > 100 µM |  | > 100 µM | 30.4 µM |  | > 100 µM | 30.7 µM |  | 44.5 µM | 67 µM |
| CCOC(=O)CCC(NC(=O)C(N)c1ccc([N+](=O)[O-])cc1)C(=O)NC(CCC(=O)OCC)C(=O)OCC (stereo unspecified) | > 100 µM |  | > 100 µM |  | > 100 µM | > 100 µM | > 100 µM | > 100 µM | > 100 µM | > 100 µM | > 100 µM | > 100 µM |  | > 100 µM | > 100 µM | > 100 µM | > 100 µM | > 100 µM |  |  |
| NS(=O)(=O)c1nnc(NC(=O)c2cccc([N+](=O)[O-])c2)s1 | > 100 µM | > 100 µM | > 100 µM | > 100 µM | > 100 µM | > 100 µM |  | > 100 µM | > 100 µM | > 100 µM | > 100 µM | > 100 µM | > 100 µM | > 100 µM | > 100 µM |  |  |  | > 100 µM | > 100 µM |
